Assay results: US9902728B2, “Pyrrolo and pyrazolopyrimidines as ubiquitin-specific protease 7 inhibitors” (Forma Therapeutics, Inc., priority 2014, dated 2018)

These compounds were tested against T1, USP7 (Homo sapiens, UniProt Q93009) (assay: USP7 Assay A (Ubitquin-Rhodamine 110 Assay)). Settings: USP7 activity in USP7 assay A and B (table does not say which assay per compound); read-out: USP7_IC50.
T1 construct: USP7, construct USP7 (208-1102) 6*His, Viva Biotech; 6xHis (C); purchased Viva Biotech
T1 sequence (Q93009 208-1102): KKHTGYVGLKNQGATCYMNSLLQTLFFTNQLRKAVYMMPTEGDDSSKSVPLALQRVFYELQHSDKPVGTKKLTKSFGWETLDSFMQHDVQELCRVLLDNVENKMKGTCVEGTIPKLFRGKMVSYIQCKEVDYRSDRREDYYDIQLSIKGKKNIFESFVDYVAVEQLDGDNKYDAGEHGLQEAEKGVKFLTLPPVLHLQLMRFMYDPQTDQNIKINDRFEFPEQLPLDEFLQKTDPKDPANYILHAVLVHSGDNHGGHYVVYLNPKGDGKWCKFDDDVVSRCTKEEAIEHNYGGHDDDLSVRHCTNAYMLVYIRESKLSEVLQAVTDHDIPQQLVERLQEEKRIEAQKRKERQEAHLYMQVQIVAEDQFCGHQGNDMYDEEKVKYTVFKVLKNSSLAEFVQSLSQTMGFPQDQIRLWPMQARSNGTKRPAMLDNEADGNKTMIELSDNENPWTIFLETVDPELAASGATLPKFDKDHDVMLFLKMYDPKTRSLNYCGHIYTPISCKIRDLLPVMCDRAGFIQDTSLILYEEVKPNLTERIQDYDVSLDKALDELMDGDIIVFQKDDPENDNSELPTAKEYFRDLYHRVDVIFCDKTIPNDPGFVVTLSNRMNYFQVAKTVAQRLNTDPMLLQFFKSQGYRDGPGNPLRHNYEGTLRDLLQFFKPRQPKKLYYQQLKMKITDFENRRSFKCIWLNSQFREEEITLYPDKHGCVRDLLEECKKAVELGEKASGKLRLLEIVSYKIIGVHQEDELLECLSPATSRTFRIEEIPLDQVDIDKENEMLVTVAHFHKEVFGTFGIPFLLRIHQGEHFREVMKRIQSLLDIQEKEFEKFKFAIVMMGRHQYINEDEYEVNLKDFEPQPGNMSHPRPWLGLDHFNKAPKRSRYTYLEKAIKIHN
Type: biochemical
Method: Each assay was performed in a final volume of 15 μL in assay buffer containing 20 mM Tris-HCl (pH 8.0, (1M Tris-HCl, pH 8.0 solution; Corning 46-031-CM)), 1 mM GSH (L-Glutathione reduced; Sigma #G4251), 0.03% BGG ([…], Sigma, #G7516-25G), and 0.01% Triton X-100 (Sigma, #T9284-10L). […] 5 μL of 2× enzyme was added to assay plates (pre-stamped with compound) preincubated with USP7 for 30 minutes and then 5 μL of 2×Ub-Rh110 was added to assay plates. […] Fluorescence was read on the Envision (Excitation at 485 nm and Emission at 535 nm; Perkin Elmer) or on the PheraSTAR (Excitation at 485 nm and Emission at 535 nm; BMG Labtech).
Data from USP7 Assays A and B were reported as percent inhibition (inh) compared with control wells based on the following equation: % inh=1−((FLU−AveLow)/(AveHigh−AveLow)) where FLU=measured Fluorescence (See Tables 6-10). AveLow=average Fluorescence of no enzyme control (n=16). AveHigh=average Fluorescence of DMSO control (n=16). […] Data is fitted using the Levenburg Marquardt algorithm.

`O=C(C1CC1)N1CCC(O)(Cn2cnc3c(cnn3-c3ccc(-c4cnn5ccccc45)cc3)c2=O)CC1` [Compound I-1736] and `O=C(C1CC1)N1CCC(O)(Cn2cnc3c(cnn3-c3ccc(-c4ccc(N5CC[C@@H](O)C5)nc4)cc3)c2=O)CC1` [Compound I-687] fall in the same range of IC50: 200 to 1000 nM for the first, 200 to 1000 nM for the second.

Compared with `O=C(c1ccc(F)cc1)N1CCC(O)(Cn2cnc3c(cnn3-c3ccc(-c4cnn(C5CS(=O)(=O)C5)c4)cc3)c2=O)CC1` [Compound I-1745], `Cc1cnc(-c2ccc(-n3ncc4c(=O)n(CC5(O)CCN(C(=O)c6ccc(F)cc6)CC5)cnc43)cc2)n1C` [Compound I-984] is higher in IC50: 200 to 1000 nM for the first, 1000 to 10000 nM for the second.

First: CN1CCN(c2ccc(-n3ncc4c(=O)n(CC5(O)CCN(C(=O)C6(C)CC6)CC5)cnc43)cc2)CC1C(F)F (stereo not drawn) [Compound I-1693]
Second: CC1(C(=O)N2CCC(O)(Cn3cnc4c(cnn4-c4ccc(-n5cc(Cl)cn5)cc4)c3=O)CC2)CC1 [Compound I-1045]
The IC50 of the first is higher: 200 to 1000 nM for the first, under 200 nM for the second.

First: O=C(c1cnc(C2CC2)o1)N1CCC(O)(Cn2cnc3c(cnn3-c3ccc(OC4CCC(F)(F)CC4)cc3)c2=O)CC1 [Compound I-817]
Second: Cn1cc(OC2CCC(C(=O)N3CCC(O)(Cn4cnc5c(cnn5-c5ccc(F)cc5)c4=O)CC3)CC2)cn1 (stereo not drawn) [Compound I-757]
The IC50 of the first is lower: under 200 nM for the first, 200 to 1000 nM for the second.

`Cc1cn(-c2ccc(-n3ncc4c(=O)n(CC5(O)CCN(C(=O)c6ccc(F)cc6)CC5)cnc43)cc2)cn1` [Compound I-987] and `O=C(c1ccc(-n2cc(CO)cn2)cc1)N1CCC(O)(Cn2cnc3c(cnn3-c3ccc(F)cc3)c2=O)CC1` [Compound I-612] fall in the same range of IC50: 1000 to 10000 nM for the first, 1000 to 10000 nM for the second.

First: COCCN1CCN(c2cccc(-n3ncc4c(=O)n(CC5(O)CCN(C(=O)C6(C)CC6)CC5)cnc43)c2)CC1 [Compound I-1750]
Second: CC1CN(c2cccc(-n3ncc4c(=O)n(CC5(O)CCN(C(=O)C6(C)CC6)CC5)cnc43)c2)CC(C)N1C (stereo not drawn) [Compound I-1645]
The IC50 of the first is higher: 200 to 1000 nM for the first, under 200 nM for the second.

First: CC1(C(=O)N2CCC(O)(Cn3cnc4c(cnn4-c4ccc(F)cc4)c3=O)CC2)CCC(Oc2ccccn2)CC1 (stereo not drawn) [Compound I-745]
Second: O=C(C1CCC(Oc2ccncc2)CC1)N1CCC(O)(Cn2cnc3c(cnn3-c3ccc(F)cc3)c2=O)CC1 (stereo not drawn) [Compound I-752]
The IC50 of the first is higher: 1000 to 10000 nM for the first, under 200 nM for the second.

First: O=C(c1ccc(-n2cnnc2)cc1)N1CCC(O)(Cn2cnc3c(cnn3-c3ccc(Cl)cc3)c2=O)CC1 [Compound I-919]
Second: O=C(c1ccc(-n2cnnn2)cc1)N1CCC(O)(Cn2cnc3c(cnn3-c3ccc(Cl)cc3)c2=O)CC1 [Compound I-1087]
The IC50 of the first is higher: 1000 to 10000 nM for the first, 200 to 1000 nM for the second.

`C=CC(=O)N1[C@@H](C(=O)N2CCC(O)(Cn3cnc4c(cnn4-c4ccc(F)cc4)c3=O)CC2)C[C@@H]1C` [Compound I-1003] and `O=C(C1CCC(OC(F)F)CC1)N1CCC(O)(Cn2cnc3c(cnn3-c3ccc(F)cc3)c2=O)CC1` (stereo not drawn) [Compound I-1112] fall in the same range of IC50: 1000 to 10000 nM for the first, 1000 to 10000 nM for the second.

First: Cc1ccn(-c2ccc(-n3ncc4c(=O)n(CC5(O)CCN(C(=O)C6(C)COC6)CC5)cnc43)cc2)n1 [Compound I-1711]
Second: Cc1cnn(-c2ccc(-n3ncc4c(=O)n(CC5(O)CCN(C(=O)c6cnc(C)o6)CC5)cnc43)cc2)c1 [Compound I-488]
The IC50 of the first is higher: 1000 to 10000 nM for the first, under 200 nM for the second. The second is the more potent here.

`C[C@]1(O)CCN(c2ccc(-n3ncc4c(=O)n(CC5(O)CCN(C(=O)C[C@H](C(F)F)n6cccn6)CC5)cnc43)cc2)C1` [Compound I-833] and `C[C@@H](CC(=O)N1CCC(O)(Cn2cnc3c(cnn3-c3ccc(N4CC[C@](C)(O)C4)cc3)c2=O)CC1)n1cccn1` [Compound I-837] cannot be ordered by IC50: under 200 nM for the first, under 200 nM for the second.

`O=C(C[C@@H](C(F)F)n1cccn1)N1CCC(O)(Cn2cnc3c(cnn3-c3ccc(-c4ccccc4)cc3)c2=O)CC1` [Compound I-646] and `C[C@@H](CC(=O)N1CCC(O)(Cn2cnc3c(cnn3-c3ccc(N4CC[C@@](C)(O)C4)cc3)c2=O)CC1)n1cccn1` [Compound I-838] fall in the same range of IC50: 1000 to 10000 nM for the first, 1000 to 10000 nM for the second.

`O=C(C1CC1)N1CCC(O)(Cn2cnc3c(ccn3-c3cccc(CN4CCCCC4)c3)c2=O)CC1` [Compound I-1009] and `O=C(C1CC1)N1CCC(O)(Cn2cnc3c(ccn3-c3ccc(F)c(CN4CCCCC4)c3)c2=O)CC1` [Compound I-1010] fall in the same range of IC50: 1000 to 10000 nM for the first, 1000 to 10000 nM for the second.

Compared with `O=C(C1CCC(Nc2ccccc2)CC1)N1CCC(O)(Cn2cnc3c(cnn3-c3ccc(F)cc3)c2=O)CC1` (stereo not drawn) [Compound I-767], `O=C(C1CCC(n2cccn2)CC1)N1CCC(O)(Cn2cnc3c(cnn3-c3ccc(F)cc3)c2=O)CC1` (stereo not drawn) [Compound I-549] is higher in IC50: 200 to 1000 nM for the first, 1000 to 10000 nM for the second.

First: Cc1ccc(C(=O)N2CCC(O)(Cn3cnc4c(cnn4-c4ccc(-n5cc(OCCO)cn5)cc4)c3=O)CC2)cc1 [Compound I-672]
Second: Cc1ncc(C(=O)N2CCC(O)(Cn3cnc4c(cnn4-c4ccc(-n5cc(Cl)cn5)cc4)c3=O)CC2)o1 [Compound I-1733]
The IC50 of the first is higher: 200 to 1000 nM for the first, under 200 nM for the second. The second is the more potent here.

`O=C(c1cn[nH]c1Cc1ccccc1)N1CCC(O)(Cn2cnc3c(cnn3-c3ccc(F)cc3)c2=O)CC1` [Compound I-603] showed an IC50 of under 200 nM.

Same assay, conditions: USP7 assay A and B (table does not say which assay per compound); Ubiquitin-Rhodamine 110 substrate; read-out: USP7_IC50

`CC(C)n1ncc2c(=O)n(CC3(O)CCN(C(=O)C[C@@H](C)c4ccccc4)CC3)cnc21` [Compound I-61] showed an IC50 of 200 to 1000 nM.

Same assay, conditions: USP7 assay A and B (table does not say which assay per compound); read-out: USP7_IC50

Compared with `Cc1ccc(-n2ncc3c(=O)n(CC4(O)CCN(C(=O)c5ccc(OC6CN(C)C6)cc5)CC4)cnc32)cc1` [Compound I-1142], `COc1ccc(-n2ncc3c(=O)n(CC4(O)CCN(C(=O)c5ccc(F)cc5)CC4)cnc32)cc1` [Compound I-620] is lower in IC50: 1000 to 10000 nM for the first, 200 to 1000 nM for the second. The second is the more potent here.

Compared with `O=C(c1ccc(F)cc1)N1CCC(O)(Cn2cnc3c(cnn3-c3ccc(F)c(CO)c3)c2=O)CC1` [Compound I-640], `O=C(c1ccc(Cl)cc1Cl)N1CCC(O)(Cn2cnc3c(cnn3-c3ccc(F)cc3)c2=O)CC1` [Compound I-317] is lower in IC50: 1000 to 10000 nM for the first, 200 to 1000 nM for the second.

First: Cc1cc(C(=O)N2CCC(O)(Cn3cnc4c(cnn4-c4ccccc4)c3=O)CC2)ccc1Cl [Compound I-212]
Second: Cc1ncc(C(=O)N2CCC(O)(Cn3cnc4c(cnn4-c4ccc(Cl)cc4)c3=O)CC2)o1 [Compound I-1524]
The IC50 of the first is lower: 200 to 1000 nM for the first, 1000 to 10000 nM for the second. The first is the more potent here.

First: O=C(c1cnc(C2CC2)o1)N1CCC(O)(Cn2cnc3c(cnn3-c3ccc(Cl)cc3)c2=O)CC1 [Compound I-1130]
Second: O=C(C1CC1)N1CCC(O)(Cn2cnc3c(cnn3-c3ccc(F)cc3)c2=O)CC1 [Compound I-38]
The IC50 of the first is lower: 200 to 1000 nM for the first, 1000 to 10000 nM for the second.

First: O=C(C1CC1)N1CCC(O)(Cn2cnc3c(cnn3-c3ccc(-c4ccc(O[C@H]5CCNC5)cc4)cc3)c2=O)CC1 [Compound I-841]
Second: O=C(Nc1ccc(-n2ncc3c(=O)n(CC4(O)CCN(C(=O)C5CC5)CC4)cnc32)cc1)C1CC1 [Compound I-1377]
The IC50 of the first is lower: 200 to 1000 nM for the first, 1000 to 10000 nM for the second. The first is the more potent here.

First: CC1(C(=O)N2CCC(O)(Cn3cnc4c(cnn4-c4ccc(F)cc4)c3=O)CC2)CCC1 [Compound I-464]
Second: C[S+]([O-])c1ccc(-n2ncc3c(=O)n(CC4(O)CCN(C(=O)c5ccc(F)cc5)CC4)cnc32)cc1 (single isomer, unassigned) [Compound I-996, 5-((1-(4-fluorobenzoyl)-4-hydroxypiperidin-4-yl)methyl)-1-(4-(methylsulfinyl)phenyl)-1H-pyrazolo[3,4-d]pyrimidin-4(5H)-one]
The IC50 of the first is lower: 200 to 1000 nM for the first, 1000 to 10000 nM for the second.

`O=C(Nc1ccc(-n2ncc3c(=O)n(CC4(O)CCN(C(=O)C5CC5)CC4)cnc32)cc1)N1CCCC1` [Compound I-1499] and `O=C(C1CC1)N1CCC(O)(Cn2cnc3c(cnn3-c3cccc(N4CCCCC4)c3)c2=O)CC1` [Compound I-1202] fall in the same range of IC50: 1000 to 10000 nM for the first, 1000 to 10000 nM for the second.

First: O=C(c1ccc(F)cc1)N1CCC(O)(Cn2cnc3c(cnn3-c3cccc(C4CCNCC4)c3)c2=O)CC1 [Compound I-993]
Second: CN(C)CCN(C)c1cccc(-n2ncc3c(=O)n(CC4(O)CCN(C(=O)c5ccc(F)cc5)CC4)cnc32)c1 [Compound I-823]
The IC50 of the first is higher: 1000 to 10000 nM for the first, 200 to 1000 nM for the second.

First: O=C(c1ccc(OC(F)F)cc1)N1CCC(O)(Cn2cnc3c(cnn3-c3ccc(F)cc3)c2=O)CC1 [Compound I-306]
Second: O=C(NC1CNCC1F)N1CCC(O)(Cn2cnc3c(cnn3-c3ccc(-c4ccccc4)cc3)c2=O)CC1 (stereo not drawn) [Compound I-662]
The IC50 of the first is lower: 1000 to 10000 nM for the first, over 10000 nM for the second.

First: C=CS(=O)(=O)Nc1ccccc1-c1ccc(C(=O)N2CCC(O)(Cn3cnc4c(cnn4C)c3=O)CC2)cc1 [Compound I-45, N-(4′-(4-Hydroxy-4-((1-methyl-4-oxo-1,4-dihydro-5H-pyrazolo[3,4-d]pyrimidin-5-yl)methyl)piperidine-1-carbonyl)-[1,1′-biphenyl]-2-yl)ethenesulfonamide]
Second: O=C(C1CC1)N1CCC(O)(Cn2cnc3c(cnn3-c3ccc(NS(=O)(=O)c4cccc(Cl)c4)cc3)c2=O)CC1 [Compound I-1428]
The IC50 of the first is lower: 200 to 1000 nM for the first, 1000 to 10000 nM for the second.

`CN(C)C(=O)N1CCC(O)(Cn2cnc3c(cnn3-c3ccc(N4CCNCC4)cc3)c2=O)CC1` [Compound I-967] and `CS(=O)(=O)c1ccc(-n2ncc3c(=O)n(CC4(O)CCN(C(=O)C5CC5)CC4)cnc32)cc1` [Compound I-31] fall in the same range of IC50: 1000 to 10000 nM for the first, 1000 to 10000 nM for the second.

`O=C(C1CC1)N1CCC(O)(Cn2cnc3c(cnn3-c3ccc(Cl)c(Cl)c3)c2=O)CC1` [Compound I-33] and `O=C(C1CC1)N1CCC(O)(Cn2cnc3c(cnn3-c3cccc(-c4cncc(F)c4)c3)c2=O)CC1` [Compound I-387] fall in the same range of IC50: 1000 to 10000 nM for the first, 1000 to 10000 nM for the second.

Work on `CC(C)OCCNc1ccc(-n2ncc3c(=O)n(CC4(O)CCN(C(=O)C5CC5)CC4)cnc32)cc1` [Compound I-1149] yielded an IC50 of 1000 to 10000 nM.
